Converted amounts (≈) assume the structure as drawn.
Columns and labels:
Human alphaherpesvirus 2 = experiment: Compound was evaluated for the antiviral activity against Herpes simplex virus type 2 (HSV-2) MS strain by using plaque reduction assay.; format: functional; details: read-out: ED50 (the source's name)
Human alphaherpesvirus 1 = experiment: Compound was evaluated for the antiviral activity against Herpes simplex virus type 1 (HSV-1) VR-3 strain by using plaque reduction assay.; format: functional; details: read-out: ED50 (the source's name)
Human alphaherpesvirus 3 = experiment: Compound was evaluated for the antiviral activity against Varicella-Zoster virus (VZV) Oka strain by using plaque reduction assay.; format: functional; details: read-out: ED50 (the source's name)
CCRF-HSB-2 = experiment: Compound was evaluated for the cytotoxicity against human T-cell leukemia, CCRF-HSB-2 by using MTT assay.; format: functional, cell-based

EC50 (Human alphaherpesvirus 2)	EC50 (Human alphaherpesvirus 1)	EC50 (Human alphaherpesvirus 3)	SMILES	IC50 (CCRF-HSB-2)
62 µg/mL (≈ 178 µM)	0.048 µg/mL (≈ 0.137 µM)	0.00083 µg/mL (≈ 0.00238 µM)	O=c1[nH]c(=O)n([C@@H]2O[C@H](CO)[C@@H](O)[C@H]2O)cc1/C=C/Br	> 100 µg/mL
0.26 µg/mL (≈ 0.749 µM)	0.0053 µg/mL (≈ 0.0153 µM)	0.00077 µg/mL (≈ 0.00222 µM)	C[C@]1(CO)O[C@@H](n2cc(/C=C/Br)c(=O)[nH]c2=O)CC1O (single isomer, unassigned)	0.45 µg/mL (≈ 1.3 µM)

Further lines, the molecule ahead of its results:

SMILES	EC50 (Human alphaherpesvirus 2)	EC50 (Human alphaherpesvirus 1)	EC50 (Human alphaherpesvirus 3)	IC50 (CCRF-HSB-2)
C[C@@]1(CO)O[C@H](n2ccc(N)nc2=O)C[C@H]1O	0.27 µg/mL (≈ 1.12 µM)	0.071 µg/mL (≈ 0.294 µM)	0.094 µg/mL (≈ 0.39 µM)	0.12 µg/mL (≈ 0.497 µM)
C[C@]1(CO)OC(n2cc(/C=C/Br)c(=O)[nH]c2=O)[C@H](O)[C@@H]1O (stereo not given in full)	63.5 µg/mL (≈ 175 µM)	24.4 µg/mL (≈ 67.2 µM)	0.18 µg/mL (≈ 0.496 µM)	> 100 µg/mL
O=c1[nH]c(=O)n([C@H]2C[C@H](O)[C@@H](CO)O2)cc1/C=C/Br [BRIVUDINE]	> 100 µg/mL	0.052 µg/mL (≈ 0.156 µM)	0.013 µg/mL (≈ 0.039 µM)	> 100 µg/mL

— ChEMBL document CHEMBL1132073, “Synthesis of novel 4'-C-methyl-pyrimidine nucleosides and their biological activities” (Bioorg Med Chem Lett, 1999)
